Measurements taken from patent US6388122B1, “Tryptase inhibitor and novel guanidino derivatives” (Ono Pharmaceutical Co., Ltd., priority 1996, dated 2002).
Structures can show the parent of a compound that is named as a salt.

Columns and labels:
[1] = molecular target: T1, trypsin (derived from bovine pancreas) (Bos taurus, UniProt P00760); assay: Trypsin inhibitory activity (BAPNA absorbance); assay type: biochemical; conditions: substrate BAPNA, pH 8.0, 30° C.
T1 construct: trypsin (derived from bovine pancreas); from tissue; host or cells: bovine pancreas
T1 sequence (P00760 24-246): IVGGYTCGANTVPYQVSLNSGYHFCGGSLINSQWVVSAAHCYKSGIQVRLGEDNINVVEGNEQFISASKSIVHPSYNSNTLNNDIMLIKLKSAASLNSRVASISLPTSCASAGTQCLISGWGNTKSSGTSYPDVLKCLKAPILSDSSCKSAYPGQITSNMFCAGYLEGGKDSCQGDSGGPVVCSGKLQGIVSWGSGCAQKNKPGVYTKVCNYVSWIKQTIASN
Procedure: To 0.2 M HEPES/sodium hydroxide buffer (pH 8.0, 100 μl) and distilled water (640 μl) were added the subject compound in various concentrations or water (10 μl) and a 80 mU/ml trypsin (derived from bovine pancreas) solution (50 μl), and the resulting mixture was allowed to preincubation at 30° C. for a minute. To the resulting reaction mixture, 2.5 mM BAPNA (200 μl) was added, incubation was made at 30° C., and the absorbance at 405 nm was determined. The absorbance in the absence of the subject compound was defined as 100% to obtain the percentage (%) in the existence of the sample compound and calculate the value of IC50.

[2] = molecular target: T2, Tryptase purified from the human lungs; assay: Tryptase inhibitory activity (Boc-Phe-Ser-Arg-MCA fluorescence); assay type: biochemical; conditions: human lung tryptase, pH 7.5, 37° C., 5 minutes incubation, substrate Boc-Phe-Ser-Arg-MCA
T2 construct: Tryptase was purified from the human lungs in accordance with the method of T. J. Smithetal. described in J. Biol. Chem., 259, 11046 (1984)
Procedure: Tryptase was purified from the human lungs in accordance with the method of T. J. Smithetal. described in J. Biol. Chem., 259, 11046 (1984). The enzyme purified in the concentration of 25.7 U/ml was diluted 10 times with 100 mM Tris/hydrochloride buffer (pH 7.5) at use. The enzyme solution prepared above (5 μl) was mixed with 100 mM Tris/hydrochloride buffer (pH 7.5, 500 μl) and the aqueous solution of the subject compound in various concentrations or water (5 μl), and the resulting mixture was incubated at 37° C. for 5 minutes. To the reaction mixture was added 20 mM Boc-Phe-Ser-Arg-MCA (2.5 μl), and elevation in fluorescence for a minute was determined at Ex=370 nm, Em=460 nm. The elevation in fluorescence in the absence of the subject compound was defined as 100% to obtain the percentage (%) in the existence of the sample compound and calculate the value of IC50.

[3] = system: bleomycin-induced rat pulmonary fibrosis; assay: Effect on bleomycin-induced rat pulmonary fibrosis; assay type: in vivo; conditions: 10 mg/kg oral once a day for 14 days, lungs taken 15 days after bleomycin
Procedure: Under anesthetization with pentobarbital, bleomycin hydrochloride (0.9 mg/0.3 ml) was given to rats by endotracheal administration to induce impairment. The lungs were taken out 15 days after inducing, the effect on pulmonary fibrogenesis was evaluated using the pulmonary […] content as the indication. The aqueous solution of the subject compound In concentration of 10 mg/kg was repeatedly given by oral administeration once a day for 14 days, initially administered 10 hours after the administration of bleomycin.

[4] = Toxicity (LD50, intravenous, male mice); conditions: mouse, in vivo, intravenously administered to male mice
Description: Extremely low toxicity has been confirmed in each of the active ingredients and nontoxic salts and nontoxic acid addition salts thereof encompassed in the present invention. […] Accordingly, any of the active substances encompassed in the present invention can be considered to be adequately safe and suitable for use as pharmaceuticals.

[5] = system: carbon tetrachloride-induced rat chronic hepatopathy; assay: Effect on carbon tetrachloride-induced rat chronic hepatopathy; assay type: in vivo; conditions: 3 mg/kg oral once a day for 8 weeks starting 5 weeks after carbon tetrachloride, liver taken at 12 weeks
Procedure: Carbon tetrachloride (1.5 mg/kg) was repeatedly given to rats by subctaneous administration twice a week for 12 weeks to induce impairment. The liver was taken out 12 weeks after inducing, the effect on hepatic fibrogenesis was evaluated using the hepatic […] content as the indication. The aqueous solution of the subject compound in concentration of 3 mg/kg was repeatedly given by oral administeration once a day for 8 weeks, initially administered 5 weeks after the administration of carbon tetrachloride.

[6] = molecular target: T3, PLA2 (derived from pig pancreas) (Sus scrofa, UniProt P00592); assay: PLA2 inhibitory activity (10PY-PC fluorescence); assay type: biochemical; conditions: pig pancreas PLA2, substrate 10PY-PC, pH 7.5
T3 construct: PLA2 (derived from pig pancreas); from tissue; host or cells: pig pancreas
Procedure: A reaction mixture was prepared which contained 50 mM Tris/hydrochloride buffer (pH 7.5, 874 μl: 100 mM sodium chloride and 1 mM EDTA contained), 1 M calcium chloride (6 μl), 1% bovine serum albumin (10 μl) and 2.5 mM 10PY-PC (10 μl). To the reaction mixture were added the subject compound in various concentrations or water (50 μl) and a 10 mU/ml PLA2 (derived from pig pancreas) solution (50 μl), and the intensity of fluorescence was determined at Ex=345 nm and Em=396 nm. The intensity of fluorescence in the absence of the subject compound was defined as 100% to obtain the percentage (%) In the existence of the sample compound and calculate the value of IC50.

T3 sequence (P00592 23-146): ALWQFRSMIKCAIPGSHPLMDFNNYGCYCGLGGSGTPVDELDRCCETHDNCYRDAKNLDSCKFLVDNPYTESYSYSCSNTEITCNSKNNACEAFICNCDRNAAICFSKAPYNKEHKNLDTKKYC

Row | IC50 [2] [nM] | SMILES | further results
1 | – | CCOC(=O)C1CCCCN1C(=O)/C=C/c1ccc(C(=O)Oc2ccc(NC(=N)N)cc2)cc1 (stereo not shown) [Acetate of compound 7, p-(p-Guanidinophenoxycarbonyl)cinnamic Acid N-(2-ethoxcarbonyl)piperidlnylamide acetate] | IC50 [1]: 180 nM
2 | 192 | N=C(N)Nc1ccc(OC(=O)c2cccc(S(N)(=O)=O)c2)cc1 [Methanesulfonate of compound 15, m-(p-guanidinophenoxycarbonyl)benzenesulfonamide] | –
3 | 0.46 | C=CCN(CC(=O)OCC)C(=O)/C(C)=C/c1ccc(C(=O)Oc2ccc(C(=N)N)cc2C(=O)OC)cc1 [Acetate of compound 23, p-(4-amidino-2-methoxycarbonylphenoxycarbonyl)-α-methylcinnamic acid N-allyl-N-ethoxycarbonylmethylamide] | –
4 | 12.6 | C=CCN(CC(=O)O)C(=O)/C(C)=C/c1ccc(C(=O)Oc2ccc(C(=N)N)cc2)cc1 [Methanesulfonate of compound 17, p-(p-amidinophenoxycarbonyl)-α-methylcinnamic acid N-allyl-N-carboxylmethylamide] | Amount of pulmonary Hydroxypurine [3]: 3.774 ± 0.504 μg/lung; Inhibition ratio (pulmonary hydroxypurine) [3]: 40.6%
5 | 0.24 | CCCCCCN(CC(=O)OCC)C(=O)/C(C)=C/c1ccc(C(=O)Oc2ccc(C(=N)N)cc2)cc1 [Acetate of compound 22, p-(p-amidlnophenoxycarbonyl)-α-methylcinnamic acid N-ethoxycarbonylmethyl-N-hexylamide] | –
6 | 1.14 | CCOC(=O)CC(CC(=O)OCC)N(C(=O)/C(C)=C/c1ccc(C(=O)Oc2ccc(C(=N)N)cc2)cc1)C1CCCCC1 [Acetate of compound 24] | –
7 | 5 | C=CCN(CC(=O)OCC)C(=O)/C(C)=C/c1ccc(C(=O)Oc2ccc(NC(=N)N)cc2)cc1 [Acetate of compound 13, p-(p-Guanidinophenoxycarbonyl)-α-methylcinnamic Acid N-allyl-N-ethoxycarbonylmethylamide Acetate] | IC50 [1]: 160 nM
8 | 1.38 | CCOC(=O)CCN(CCCOC)C(=O)/C(C)=C/c1ccc(C(=O)Oc2ccc(C(=N)N)cc2)cc1 [Hydrochloride of compound 25, p-(p-amidinophenoxycarbonyl)-α-methylcinnamic acid N-2-ethoxycarbonylethyl-N-3-methoxypropylamide] | –
9 | 30 | CCOC(=O)c1ccc(OC(=O)CCCCCNC(=N)N)cc1 [Methanesulfonate of compound 1, p-ethoxycarbonylphenyl 6-guanidinohexanoate] | –
10 | 52.9 | N=C(N)Nc1ccc(C(=O)Oc2ccc(CC(=O)O)cc2)cc1 [Methanesulfonate of compound 3, p-(p-guanidinobenzoyloxy)phenylacetic acid] | –
11 | 0.21 | N=C(N)c1ccc(OC(=O)c2ccc(/C=C/C(=O)N3CCN(Cc4ccccc4)CC3)cc2)cc1 [Hydrochloride of compound 19-2, p-(p-amidinophenoxycarbonyl)cinnamic acid N-(4-phenyl-methyl)piperadinylamide] | –
12 | – | CCOC(=O)[C@@H]1CCCN1C(=O)/C=C/c1ccc(C(=O)Oc2ccc(NC(=N)N)cc2)cc1 [Acetate of compound 10, p-(p-Guanidinophenoxycarbonyl)cinnamic Acid N-(2-(S)-ethoxycarbonyl)pyrrolidinylamide Acetate] | IC50 [1]: 180 nM
13 | 2.39 | C#CCN(CC(=O)OCC)C(=O)/C(C)=C/c1ccc(C(=O)Oc2ccc(C(=N)N)cc2)cc1 [Acetate of compound 18, p-(p-amidinophenoxycarbonyl)-α-methylcinnamic acid N-propargyl-N-ethoxycarbonylmethylamide] | –
14 | – | CCOC(=O)CN(C(=O)/C(C)=C/c1ccc(C(=O)Oc2ccc(NC(=N)N)cc2)cc1)c1ccccc1 [Hydrochloride of compound 6, p-(p-Guanidinophenoxycarbony) -α-methylcinnamic Acid N-phenyl-N-ethoxycarbonylmethylamide Hydrochloride] | IC50 [1]: 110 nM; IC50 [6]: 5000 nM
15 | 11.2 | CCOC(=O)CN(C(=O)c1ccc(C(=O)Oc2ccc(NC(=N)N)cc2)cc1)c1ccccc1 [Methanesulfonate of compound 14, p-(p-guanidinophenoxycarbonyl)benzoic acid N-phenyl-N-ethoxycarbonylmethylamide] | –
16 | – | CCOC(=O)CN(C(=O)/C=C/c1ccc(C(=O)Oc2ccc(NC(=N)N)cc2)cc1)c1ccccc1 [Hydrochloride of compound 5, p-(p-Guanidinophenoxycarbonyl)cinnamic Acid N-phenyl-N-ethoxycarbonylmethylamide Hydrochloride] | IC50 [6]: 8000 nM
17 | 4.33 | CN(C)C(=O)COC(=O)Cc1ccc(OC(=O)c2ccc(NC(=N)N)cc2)cc1 [Methanesulfonate of compound 2, N,N-ddimethylcarbamoylmethyl p-(p-guanidinobenzoyloxy)phenylacetate] | –

Row | SMILES | IC50 [2] [nM] | further results
18 | C=CCN(CC(=O)OCC)C(=O)/C(C)=C/c1ccc(C(=O)Oc2ccc(C(=N)N)cc2)cc1 [Methanesulfonate of compound 16, p-(p-amidinophenoxycarbonyl)-α-methylcinnamic acid N-allyl-N-ethoxycarbonylmethylamide] | 1.4 | LD50 [4]: 117 mg/kg; Amount of hepatic Hydroxypurine [5]: 896.5 ± 686.7 μg/liver; Inhibition ratio (hepatic hydroxypurine) [5]: 58.1%
